Like-named read-outs stand apart in the source and are kept apart here.
Key:
[1] = tested on: PC3; test: XTT viability assay, PC3; assay type: cell-based; conditions: Homo sapiens, PC-3, Prostate Cancer
From the text: (§1) Cells and culture conditions. Primary astrocytes (Lonza, Walkersville, Md.; ABM™ Basal Media with AGM™ SingleQuots™ Supplement Pack), fibroblast (ATCC; Fibroblast Basal Medium (ATCC© PCS-201-030™) with Fibroblast Growth Kit-Serum-free (ATCC© PCS-201-040™)), airway epithelial cell (ATCC; Airway Epithelial Cell Basal Medium (ATCC© PCS-300-030™) with Bronchial Epithelial Cell Growth Kit (ATCC© PCS-300-040™)), renal proximal tubule (ATCC; Renal Epithelial Cell Basal Medium (ATCC© PCS-400-030™) with Renal Epithelial Cell Growth Kit (ATCC© PCS-400-040™)), prostate epithelial cell (Lonza; PrEGM™ BulletKit™) and mammary epithelial cell (Lonza; MEBM™ BulletKit™) were kept in a humidified incubator at 37° C. adjusted to 5% CO2. […]
(§2) XTT assay. […] Cell viability was measured using the R&D Systemsm TACS XTT Cell Proliferation/Viability Assay (R&D Systems, Minneapolis, Minn.).

[2] = tested on: LNCaP; test: XTT viability assay, LNCaP; assay type: cell-based; conditions: Homo sapiens, Prostate Cancer
From the text: as §1, §2

[3] = tested on: MDA-MB-231; test: XTT viability assay, MDA-MB-231; assay type: cell-based; conditions: Homo sapiens; Breast Cancer, MDA-MB-231, XTT
From the text: as §1, §2

[4] = tested on: SCC-25; test: XTT viability assay, SCC-25; assay type: cell-based; conditions: Homo sapiens; Head and Neck Cancer, SCC-25, XTT
From the text: as §1, §2

[5] = tested on: SK-Mel-1; test: XTT viability assay, SK-Mel-1; assay type: cell-based; conditions: Homo sapiens; Melanoma, SK-Mel-1, XTT
From the text: as §1, §2

[6] = tested on: RPMI-7951; test: XTT viability assay, RPMI-7951; assay type: cell-based; conditions: Homo sapiens; Melanoma, RPMI-7951, XTT
From the text: as §1, §2

[7] = tested on: NCI-H1299; test: XTT viability assay, NCI-H1299; assay type: cell-based; conditions: Homo sapiens, Lung Cancer
From the text: as §1, §2

[8] = tested on: SNU-475; test: XTT viability assay, SNU-475; assay type: cell-based; conditions: Homo sapiens; Liver Cancer, SNU-475, XTT
From the text: as §1, §2

[9] = tested on: Astrocyte; test: XTT viability assay, primary astrocytes; assay type: cell-based; conditions: Homo sapiens, Primary normal cells
From the text: as §1, §2

[10] = tested on: Fibroblast; test: XTT viability assay, primary fibroblasts; assay type: cell-based; conditions: Homo sapiens, Primary normal cells
From the text: as §1, §2

[11] = tested on: Prostate Epithelial cell; test: XTT viability assay, prostate epithelial cells; assay type: cell-based; conditions: Homo sapiens, Primary normal cells
From the text: as §1, §2

[12] = tested on: Mammary Epithelial cell; test: XTT viability assay, mammary epithelial cells; assay type: cell-based; conditions: Homo sapiens, Primary normal cells
From the text: as §1, §2

[13] = tested on: HUVEC; test: XTT viability assay, HUVEC; assay type: cell-based; conditions: Homo sapiens, Primary normal cells
[14] = tested on: primary human cells; test: XTT viability assay, panel of primary non-malignant cells (means and ranges); assay type: cell-based
From the text: Cells and culture conditions. Primary astrocytes (Lonza, Walkersville, Md.; ABM™ Basal Media with AGM™ SingleQuots™ Supplement Pack), fibroblast (ATCC; Fibroblast Basal Medium (ATCC© PCS-201-030™) with Fibroblast Growth Kit-Serum-free (ATCC© PCS-201-040™)), airway epithelial cell (ATCC; Airway Epithelial Cell Basal Medium (ATCC© PCS-300-030™) with Bronchial Epithelial Cell Growth Kit (ATCC© PCS-300-040™)), renal proximal tubule (ATCC; Renal Epithelial Cell Basal Medium (ATCC© PCS-400-030™) with Renal Epithelial Cell Growth Kit (ATCC© PCS-400-040™)), prostate epithelial cell (Lonza; PrEGM™ BulletKit™) and mammary epithelial cell (Lonza; MEBM™ BulletKit™) were kept in a humidified incubator at 37° C. adjusted to 5% CO2. Prostate (PC3, LNCaP, DU-145), breast (MDA-MB-231, MDA-MB-453, SK-BR-3), head and neck (A253, Detroit 562, SCC-25), melanoma (SK-Mel-3, SK-Mel-1, RPMI-7951), pancreatic (CfPAC-1, BxPC3, SW1990), lung (A549, NCI-H1299, NCI-H1437) and liver (SNU-475, SK-HEP-1, SNU-387) cancer cell lines were obtained from ATCC and cultured in their respective media (prostate cells: RPMI-1640, MDA-MB-231: RPMI-1640, MDA-MB-453: Leibovitz's L-15, SK-BR-3: McCoy's 5a, A253: McCoy's 5a, Detroit 562: EMEM, SCC-25: DMEM, SK-Mel-3: McCoy's 5a, SK-Mel-1: EMEM, RPMI-7951: EMEM), CfPAC-1: IMDM, BxPC3: RPMI-1640, SW1990: Leibovitz's L-15), A549: F-12K, NCI-H1299: RPMI-1640, NCI-H1437: RPMI-1640, SNU-475: RPMI-1640, SK-HEP-1: EMEM, SNU-387: RPMI-1640. All media were supplemented with 10% (vol/vol) filtered fetal bovine serum (FBS, Invitrogen, Carlsbad, Calif.), 1% penicillin/streptomycin (Invitrogen) and maintained in a humidified incubator at 37° C. with 5% CO2 except for MDA-MB-453 and SW1990 grown at 37° C. without CO2 control. Wild type (ATCC) and C342T XPB knock-in cells (named T7115) of Human Embryonic Kidney 293T (HEK293T), HeLa (ATCC) were cultured in DMEM (GIBCO) with 10% (vol/vol) filtered fetal bovine serum (FBS, Invitrogen, Carlsbad, Calif.), 1% penicillin/streptomycin (Invitrogen).
XTT assay. Five thousand cells/well were plated on flat-bottom, transparent 96-well plate in a full growth media and incubated at appropriate culture conditions. Twenty four hours after seeding, cells were treated with indicated drugs and incubated for 47 hrs. Cell viability was measured using the R&D Systemsm TACS XTT Cell Proliferation/Viability Assay (R&D Systems, Minneapolis, Minn.).

[15] = tested on: PC3 prostate cancer cells expressing firefly luciferase; test: Experimental metastatic prostate cancer mouse model (PC3/ML/fluc, tail vein); assay type: in vivo; conditions: for tumor cells by bioluminescence imaging: 1 mg/kg daily for 30 days; for Median survival time: i.p. once daily for 30 days
Description: In vivo tumor xenograft assay. Animal experiments were performed following the protocols approved by the Johns Hopkins University Animal Care and Use Committee. The experimental murine model of human prostate cancer metastasis used in this study was generated as previously described. (Bhatnagar et al. (2014) Cancer Res. 74:5772-81) Briefly, four-to six-week-old, male NOD/SCID/IL2R^γnull (NSG, purchased from Animal Resources Core, JHU) were injected with a million PC3/ML/fluc cells via tail vein. Tumor formation was confirmed by bioluminescence imaging (BLI) using the IVIS Spectrum Imaging System (Caliper Life Sciences, Hopkinton, Mass.) three weeks after injection and the mice were given indicated doses of drug once daily (intraperitoneal injection) for 30 days. Tumor progression was then monitored weekly by BLI and survival monitored concurrently.

[16] = tested on: MDA MB231 cells; test: MDA MB231 proliferation under hypoxia ([3H]-thymidine incorporation); assay type: cell-based, human; conditions: MDA MB231, 1% O2, 48 h post treatment
[17] = tested on: MCF-7; test: MCF-7 proliferation under hypoxia ([3H]-thymidine incorporation); assay type: cell-based, human; conditions: MCF-7, 1% O2, 48 h post treatment
[18] = Non-malignant cells, read-out: mean IC50 by cell type
[19] = cell viability, panel of normal primary cells, read-out: range of IC50 values for primary cells
[20] = 1 mg/kg, days after initiation of treatment

Row | SMILES | IC50 [2] [µM] | IC50 [3] [µM] | IC50 [4] [µM] | IC50 [5] [µM] | IC50 [6] [µM] | IC50 [7] [µM] | IC50 [8] [µM] | IC50 [9] [µM] | IC50 [10] [µM] | IC50 [11] [µM] | IC50 [12] [µM] | IC50 [13] [µM] | IC50 [14, 18] [µM] | IC50 [14, 19] [µM] | tumor cells by bioluminescence imaging [15] | Median survival time [15, 20] [days] | also measured
1 | CC(C)[C@]12O[C@H]1[C@@H]1O[C@]13[C@]1(O[C@H]1C[C@H]1C4=C(CC[C@@]13C)C(=O)OC4)[C@@H]2OC(=O)CCC(=O)O[C@@H]1OC(CO)[C@@H](O)C(O)C1O (some centres unmarked) [Compound 10] | 0.56 ± 0.09 | 0.28 ± 0.01 | 1.26 ± 0.99 | 1.29 | 2.67 ± 1.34 | 6.4 ± 2.43 | 3.85 ± 3.26 | 5.31 ± 4.29 | 5.64 ± 1.28 | 5.27 ± 2.29 | 2.56 ± 0.29 | 1.37 ± 0.73 | 4.16 ± 0.93 | 1.37 to 5.6 | tumor cells were cleared by week 2 of treatment | 76 | IC50 [1]: 0.5 ± 0.1 µM
2 | CC(C)[C@]12O[C@H]1[C@@H]1O[C@]13[C@]1(O[C@H]1C[C@H]1C4=C(CC[C@@]13C)C(=O)OC4)[C@@H]2OC(=O)CCCO[C@@H]1OC(CO)[C@@H](O)C(O)C1O (stereo in doubt) [Compound 1] | 0.45 ± 0.33 | 0.26 ± 0.1 | 1.63 ± 0.78 | 3.44 | 5.95 ± 2.45 | 11.5 ± 5.51 | 4.6 ± 4.55 | 10.9 ± 9.66 | 10.6 ± 1.22 | 4.72 ± 3.48 | 4.31 ± 1.03 | 3.98 ± 1.15 | 6.8 ± 1.67 | 4 to 10.9 | undetectable levels of cancer cells two weeks after cessation of treatment | 84 | effect of hypoxia on anti-proliferative effect [16]: enhances the anti-proliferative effect; effect of hypoxia on anti-proliferative effect [17]: modest enhancement; Median survival time ([15]; 0.25 mg/kg): 46 days; Median survival time ([15]; 0.5 mg/kg): 76 days; longest survival ([15]; 1 mg/kg treatment group, versus 26 days for untreated group): 86 days
